Experimental data from patent US20230085307A1, “PYRIDAZINONE COMPOUND AND HERBICIDE” (NISSAN CHEMICAL CORPORATION, priority 2019, published 2023).

Legend:
[1] = test system: blackgrass; experiment: Test Example 4: herbicidal effect by soil treatment (Table 19, symbol J); assay type: in vivo, blackgrass (Alopecurus myosuroides); details: amount of applied herbicide 320 g/ha
Outline: (§1)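 Scoring uses the grading scale of an earlier test, three weeks post-application. Treatment consists of spraying a diluted emulsion formulation across the surface of sterilized diluvial soil in which seeds are buried near 1.5 cm deep; boxes are kept in a greenhouse between 25° C. and 30° C.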

[2] = test system: chickweed; experiment: Test Example 4: herbicidal effect by soil treatment (Table 19, symbol P); assay type: in vivo, common chickweed (Stellaria media); details: amount of applied herbicide 320 g/ha
Outline: as §1

[3] = test system: green foxtail; experiment: Test Example 5: herbicidal effect by foliage application, plastic box (Table 20, symbol G); assay type: in vivo, green foxtail (Setaria viridis); details: foliage application, 320 g/ha, three weeks after application
Outline: (§2)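 Post-emergence foliar test in sterilized diluvial soil. Compound applied as water-diluted emulsion at a predetermined rate to 14-day-old plants; evaluation at three weeks.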

[4] = test system: lambsquarters; experiment: Test Example 4: herbicidal effect by soil treatment (Table 19, symbol O); assay type: in vivo, lambsquarters (Chenopodium album); details: amount of applied herbicide 320 g/ha
Outline: as §1

[5] = test system: persian speedwell; experiment: Test Example 4: herbicidal effect by soil treatment (Table 19, symbol R); assay type: in vivo, Persian speedwell (Veronica persica); details: amount of applied herbicide 320 g/ha
Outline: as §1

[6] = test system: windgrass; experiment: Test Example 5: herbicidal effect by foliage application, plastic box (Table 20, symbol L); assay type: in vivo, windgrass (Apera spica-venti); details: foliage application, 320 g/ha, three weeks after application
Outline: as §2

[7] = test system: velvetleaf; experiment: Test Example 4: herbicidal effect by soil treatment (Table 19, symbol M); assay type: in vivo, velvetleaf (Abutilon theophrasti); details: amount of applied herbicide 320 g/ha
Outline: as §1

[8] = test system: chickweed; experiment: Test Example 5: herbicidal effect by foliage application, plastic box (Table 20, symbol P); assay type: in vivo, common chickweed (Stellaria media); details: foliage application, 320 g/ha, three weeks after application
Outline: as §2

[9] = test system: wild oat; experiment: Test Example 4: herbicidal effect by soil treatment (Table 19, symbol I); assay type: in vivo, wild oat (Avena fatua); details: amount of applied herbicide 320 g/ha
Outline: as §1

[10] = test system: southern crabgrass; experiment: Test Example 4: herbicidal effect by soil treatment (Table 19, symbol F); assay type: in vivo, southern crabgrass (Digitaria ciliaris); details: amount of applied herbicide 320 g/ha
Outline: as §1

[11] = test system: lambsquarters; experiment: Test Example 5: herbicidal effect by foliage application, plastic box (Table 20, symbol O); assay type: in vivo, lambsquarters (Chenopodium album); details: foliage application, 320 g/ha, three weeks after application
Outline: as §2

[12] = test system: southern crabgrass; experiment: Test Example 5: herbicidal effect by foliage application, plastic box (Table 20, symbol F); assay type: in vivo, southern crabgrass (Digitaria ciliaris); details: foliage application, 320 g/ha, three weeks after application
Outline: as §2

[13] = test system: redroot pigweed; experiment: Test Example 5: herbicidal effect by foliage application, plastic box (Table 20, symbol N); assay type: in vivo, redroot pigweed (Amaranthus retroflexus); details: foliage application, 320 g/ha, three weeks after application
Outline: as §2

[14] = test system: redroot pigweed; experiment: Test Example 4: herbicidal effect by soil treatment (Table 19, symbol N); assay type: in vivo, redroot pigweed (Amaranthus retroflexus); details: amount of applied herbicide 320 g/ha
Outline: as §1

[15] = test system: green foxtail; experiment: Test Example 4: herbicidal effect by soil treatment (Table 19, symbol G); assay type: in vivo, green foxtail (Setaria viridis); details: amount of applied herbicide 320 g/ha
Outline: as §1

[16] = test system: barnyard grass; experiment: Test Example 3: herbicidal effect by foliage application, Wagner pot (Table 18, symbol H); assay type: in vivo, barnyard grass (Echinochloa crus-galli); details: 320 g/ha
Outline: (§3)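 Plants were sown in alluvial soil held under 0.1–0.5 cm standing water and grown 14 days in a greenhouse at 25–30 °C. An emulsifiable formulation, water-diluted to the set dose, was then sprayed onto the foliage, and effects were scored three weeks later using previously defined criteria.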

[17] = test system: persian speedwell; experiment: Test Example 5: herbicidal effect by foliage application, plastic box (Table 20, symbol R); assay type: in vivo, Persian speedwell (Veronica persica); details: foliage application, 320 g/ha, three weeks after application
Outline: as §2

[18] = test system: wild oat; experiment: Test Example 5: herbicidal effect by foliage application, plastic box (Table 20, symbol I); assay type: in vivo, wild oat (Avena fatua); details: foliage application, 320 g/ha, three weeks after application
Outline: as §2

[19] = test system: Italian ryegrass; experiment: Test Example 4: herbicidal effect by soil treatment (Table 19, symbol K); assay type: in vivo, Italian ryegrass (Lolium multiflorum); details: amount of applied herbicide 320 g/ha
Outline: as §1

[20] = test system: velvetleaf; experiment: Test Example 5: herbicidal effect by foliage application, plastic box (Table 20, symbol M); assay type: in vivo, velvetleaf (Abutilon theophrasti); details: foliage application, 320 g/ha, three weeks after application
Outline: as §2

[21] = test system: Chinese sprangletop; experiment: Test Example 3: herbicidal effect by foliage application, Wagner pot (Table 18, symbol D); assay type: in vivo, chinese sprangletop (Leptochloa chinensis); details: 320 g/ha
Outline: as §3

[22] = test system: barnyard grass; experiment: Test Example 4: herbicidal effect by soil treatment (Table 19, symbol H); assay type: in vivo, barnyard grass (Echinochloa crus-galli); details: amount of applied herbicide 320 g/ha
Outline: as §1

[23] = test system: rice flat sedge; experiment: Test Example 3: herbicidal effect by foliage application, Wagner pot (Table 18, symbol E); assay type: in vivo, rice flat sedge (Cyperus iria); details: 320 g/ha
Outline: as §3

[24] = test system: Japanese bulrush; experiment: Test Example 1: herbicidal activity, application before weed generation under submerged conditions (Table 16, symbol B); assay type: in vivo, Japanese bulrush (Schoenoplectus juncoides)
Outline: (§4)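 Submerged Wagner pots (alluvial soil, 4 cm water) sown with weed seeds and planted with 2.5-leaf rice seedlings; emulsifiable concentrate diluted in water applied to water surface on sowing day. Held in greenhouse at 25-30 °C; injury scored 0-5 by herbicidal rate after three weeks.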

[25] = test system: late watergrass; experiment: Test Example 1: herbicidal activity, application before weed generation under submerged conditions (Table 16, symbol A); assay type: in vivo, late watergrass (Echinochloa oryzicola)
Outline: as §4

[26] = test system: barnyard grass; experiment: Test Example 5: herbicidal effect by foliage application, plastic box (Table 20, symbol H); assay type: in vivo, barnyard grass (Echinochloa crus-galli); details: foliage application, 320 g/ha, three weeks after application
Outline: as §2

[27] = test system: Italian ryegrass; experiment: Test Example 5: herbicidal effect by foliage application, plastic box (Table 20, symbol K); assay type: in vivo, Italian ryegrass (Lolium multiflorum); details: foliage application, 320 g/ha, three weeks after application
Outline: as §2

[28] = test system: blackgrass; experiment: Test Example 5: herbicidal effect by foliage application, plastic box (Table 20, symbol J); assay type: in vivo, blackgrass (Alopecurus myosuroides); details: foliage application, 320 g/ha, three weeks after application
Outline: as §2

[29] = test system: oval-leafed pondweed; experiment: Test Example 1: herbicidal activity, application before weed generation under submerged conditions (Table 16, symbol C); assay type: in vivo, oval-leafed pondweed (Monochoria vaginalis)
Outline: as §4

[30] = amount of applied herbicide 320 g/ha

**Q.** What does the source list for `CCOc1ccccc1-c1sc2ccccc2c1-c1c(O)c(C)nn(C)c1=O` [1-011]?
**A.** herbicidal effect rating, J: blackgrass [1]: 4 (Herbicidal rate of 70% or more and less than 90%); herbicidal effect rating, P: chickweed [2]: 5 (Herbicidal rate of 90% or more (almost completely withered)); herbicidal effect grade, G: green foxtail [3]: 5 (Herbicidal rate of 90% or more (almost completely withered)); herbicidal effect rating, O: lambsquarters [4]: 4 (Herbicidal rate of 70% or more and less than 90%); herbicidal effect rating, R: persian speedwell [5]: 5 (Herbicidal rate of 90% or more (almost completely withered)); herbicidal effect grade, L: windgrass [6]: 4 (Herbicidal rate of 70% or more and less than 90%); herbicidal effect rating, M: velvetleaf [7]: 0 (Herbicidal rate of 5% or less (almost no effect)); herbicidal effect grade, P: chickweed [8]: 5 (Herbicidal rate of 90% or more (almost completely withered)); herbicidal effect rating, I: wild oat [9]: 2 (Herbicidal rate of 20% or more and less than 40%); herbicidal effect rating, F: southern crabgrass [10]: 3 (Herbicidal rate of 40% or more and less than 70%); herbicidal effect grade, O: lambsquarters [11]: 2 (Herbicidal rate of 20% or more and less than 40%); herbicidal effect grade, F: southern crabgrass [12]: 5 (Herbicidal rate of 90% or more (almost completely withered)); herbicidal effect grade, N: redroot pigweed [13]: 5 (Herbicidal rate of 90% or more (almost completely withered)); herbicidal effect rating, N: redroot pigweed [14]: 4 (Herbicidal rate of 70% or more and less than 90%); herbicidal effect rating, G: green foxtail [15]: 5 (Herbicidal rate of 90% or more (almost completely withered)); herbicidal effect on H (barnyard grass), rating 0-5 [16]: 5 (Herbicidal rate of 90% or more (almost completely withered)); herbicidal effect grade, R: persian speedwell [17]: 5 (Herbicidal rate of 90% or more (almost completely withered)); herbicidal effect grade, I: wild oat [18]: 4 (Herbicidal rate of 70% or more and less than 90%); herbicidal effect rating, K: Italian ryegrass [19]: 3 (Herbicidal rate of 40% or more and less than 70%); herbicidal effect grade, M: velvetleaf [20]: 3 (Herbicidal rate of 40% or more and less than 70%); herbicidal effect on D (Chinese sprangletop), rating 0-5 [21]: 3 (Herbicidal rate of 40% or more and less than 70%); herbicidal effect rating, H: barnyard grass [22]: 5 (Herbicidal rate of 90% or more (almost completely withered)); herbicidal effect on E (rice flat sedge), rating 0-5 [23]: 5 (Herbicidal rate of 90% or more (almost completely withered)); Herbicidal effect on B: Japanese bulrush (grade 0-5) ([24]; 320 g/ha applied herbicide): 0 (Herbicidal rate of 5% or less (almost no effect)); Herbicidal effect on A: late watergrass (grade 0-5) ([25]; 320 g/ha applied herbicide): 5 (Herbicidal rate of 90% or more (almost completely withered)); herbicidal effect grade, H: barnyard grass [26]: 5 (Herbicidal rate of 90% or more (almost completely withered)); herbicidal effect grade, K: Italian ryegrass [27]: 4 (Herbicidal rate of 70% or more and less than 90%); herbicidal effect grade, J: blackgrass [28]: 5 (Herbicidal rate of 90% or more (almost completely withered)); Herbicidal effect on C: oval-leafed pondweed (grade 0-5) ([29]; 320 g/ha applied herbicide): 0 (Herbicidal rate of 5% or less (almost no effect))

**Q.** What does the source list for `COc1cc2sc(-c3ccccc3OC)c(-c3c(O)c(C)nn(C)c3=O)c2cc1F` [5-064]?
**A.** J: blackgrass, herbicidal effect grade [1]: 1 (Herbicidal rate of 5% or more and less than 20%); P: chickweed, herbicidal effect grade [2]: 4 (Herbicidal rate of 70% or more and less than 90%); herbicidal effect on green foxtail (G) [3]: 5 (Herbicidal rate of 90% or more (almost completely withered)); O: lambsquarters, herbicidal effect grade [4]: 3 (Herbicidal rate of 40% or more and less than 70%); R: persian speedwell, herbicidal effect grade [5]: 5 (Herbicidal rate of 90% or more (almost completely withered)); herbicidal effect on windgrass (L) [6]: 5 (Herbicidal rate of 90% or more (almost completely withered)); M: velvetleaf, herbicidal effect grade [7]: 2 (Herbicidal rate of 20% or more and less than 40%); I: wild oat, herbicidal effect grade [9]: 0 (Herbicidal rate of 5% or less (almost no effect)); F: southern crabgrass, herbicidal effect grade [10]: 3 (Herbicidal rate of 40% or more and less than 70%); herbicidal effect on lambsquarters (O) [11]: 3 (Herbicidal rate of 40% or more and less than 70%); herbicidal effect on southern crabgrass (F) [12]: 4 (Herbicidal rate of 70% or more and less than 90%); N: redroot pigweed, herbicidal effect grade [14]: 4 (Herbicidal rate of 70% or more and less than 90%); G: green foxtail, herbicidal effect grade [15]: 4 (Herbicidal rate of 70% or more and less than 90%); herbicidal effect on barnyard grass (H) [16]: 5 (Herbicidal rate of 90% or more (almost completely withered)); herbicidal effect on persian speedwell (R) [17]: 5 (Herbicidal rate of 90% or more (almost completely withered)); herbicidal effect on wild oat (I) [18]: 4 (Herbicidal rate of 70% or more and less than 90%); K: Italian ryegrass, herbicidal effect grade [19]: 0 (Herbicidal rate of 5% or less (almost no effect)); herbicidal effect on velvetleaf (M) [20]: 4 (Herbicidal rate of 70% or more and less than 90%); herbicidal effect on Chinese sprangletop (D) [21]: 2 (Herbicidal rate of 20% or more and less than 40%); H: barnyard grass, herbicidal effect grade [22]: 4 (Herbicidal rate of 70% or more and less than 90%); herbicidal effect on rice flat sedge (E) [23]: 5 (Herbicidal rate of 90% or more (almost completely withered)); Herbicidal effect, B: Japanese bulrush [24, 30]: 0 (Herbicidal rate of 5% or less (almost no effect)); Herbicidal effect, A: late watergrass [25, 30]: 2 (Herbicidal rate of 20% or more and less than 40%); herbicidal effect on barnyard grass (H) [26]: 4 (Herbicidal rate of 70% or more and less than 90%); herbicidal effect on Italian ryegrass (K) [27]: 3 (Herbicidal rate of 40% or more and less than 70%); herbicidal effect on blackgrass (J) [28]: 4 (Herbicidal rate of 70% or more and less than 90%); Herbicidal effect, C: oval-leafed pondweed [29, 30]: 0 (Herbicidal rate of 5% or less (almost no effect))
